In patent US20200399238A1, “THERAPEUTIC AURONES” (MIDDLE TENNESSEE STATE UNIVERSITY, priority 2016, published 2020):
Like-named read-outs stand apart in the source and are kept apart here.

Key:
[1] = system: Trypanosoma brucei brucei 427 cells; assay: T. brucei culture and assay (PrestoBlue); type: cell-based; conditions: for IC50: Trypanosoma brucei
[2] = system: Trypanosoma cruzi Tulahuen cells expressing beta-galactosidase; assay: T. cruzi intracellular assay (beta-galactosidase, L6 host cells); conditions: for IC50: Trypanosoma cruzi, TULAHUEN; for Selectivity L6/Tc-I: Table 3B
[3] = system: Leishmania amazonensis promastigotes expressing beta-lactamase; assay: microbe, parasite or virus in culture; type: cell-based; conditions: for IC50: Leishmania amazonensis, read-out: IC50 L. amaz.
[4] = system: rat skeletal muscle cell line, L6; assay: cells; type: cell-based
[5] = system: C. albicans (ATCC strain 90028); assay: Antifungal microdilution broth assay (PrestoBlue), C. albicans; type: cell-based, Candida albicans; conditions: Candida albicans, 100 μM
Description: Sigma-Aldrich) was used as the base medium for testing. […] solution of morpholinepropanesulfonic acid (MOPS; Sigma-Aldrich) was added to the RPMI to a final concentration of 0.165 M for buffering (RPMI-MOPS). This medium was adjusted to a pH of 7.0 with 10 M NaOH and filter sterilized. C. albicans (ATCC strain 90028), C. [NT] strain 66032), and C. tropicalis (ATCC strain 750) were cultured on potato dextrose agar (Sigma-Aldrich) plates, and incubated at 35° C. for 24 hours. For antifungal testing, overnight colonies were adjusted to 1.5×10^3 cells/mL, hereafter referred to as the test inoculum. PrestoBlue® (Life Technologies, Invitrogen, Carlsbad, Calif.), a resazurin-based cell viability reagent that, in metabolically active cells, is reduced from blue, non-fluorescent resazurin, to red, fluorescent resorufin, was used to assess inhibition of yeast growth by the aurones. […] Following addition of aurone, plates were then incubated for 24 hours at 35° C. PrestoBlue was added to a final concentration of 10% in each well and fluorescence read at 560 nm excitation and 590 nm emission, per manufacturer instructions, using a SpectraMax M2e spectrophotometer (Molecular Devices, LLC, Sunnyvale, Calif.). To optimize the PrestoBlue reduction time, RFUs were collected at 15 minute intervals for 4 hours using a reference antifungal. […] IC50 determination was calculated using GraphPad Prism version 7.01 for Windows (GraphPad Software, Inc., La Jolla, Calif.) from the RFUs at dilution points. Calculations were made with a nonlinear regression after transforming the molar concentrations of the aurones into the logarithmic form. Graphing was accomplished utilizing the same program following a four parameter curve fitting sigmoidal plot of the data. All aurones and controls were tested in triplicate and all testing was repeated in at least three independent experiments.

[6] = Table 1, mean of 2(+) independent trials, read-out: IC50 T. brucei
[7] = Rattus norvegicus, Table 1, read-out: IC50 Toxicity (L6)
[8] = read-out: IC50 T. cruzi, Table 1, intracellular assay, mean of 2(+) trials (^c one trial)
[9] = read-out: IC50 T. cruzi, Table 2, intracellular assay, mean of 2(+) independent trials
[10] = Table 2, L6 IC50 / T. brucei IC50
[11] = Table 3B, estimated from highest L6 dose tested where no L6 IC50
[12] = Table 2, L6 IC50 / L. amazonensis IC50
[13] = Rattus norvegicus, Table 3B, weighted means of two or more independent trials, read-out: IC50 L6
[14] = Table 2, L6 mammalian cells, read-out: IC50 Toxicity (L6)
[15] = Table 1, intracellular T. cruzi IC50
[16] = Table 2, L6 IC50 / T. cruzi IC50 (intracellular assay)
[17] = estimated from highest L6 dose tested where no L6 IC50
[18] = read-out: IC50 TC-I, Table 3B, weighted means of two or more independent trials
[19] = Rattus norvegicus, Table 3A, weighted means of two or more independent trials, read-out: IC50 L6
[20] = read-out: IC50 TC-I, Table 3A, weighted means of two or more independent trials
[21] = Rattus norvegicus, Table 3C, weighted means of two or more independent trials, read-out: IC50 L6
[22] = read-out: IC50 TC-I, Table 3C, intracellular T. cruzi, weighted means of two or more independent trials
[23] = ATCC90028, Table 4B, C. albicans, value ± spread, read-out: Percent Inhibition (at 100 μM)
[24] = ATCC90028, Table 4A, read-out: C. albicans inhibition (at 100 μM)

| SMILES | melting point [°C] | IC50 [1, 6] [µM] | IC50 [3] [µM] | IC50 [4, 7] [µM] | IC50 [2, 8] [µM] | IC50 [4, 19] [µM] | IC50 [2, 20] [µM] | inhibition at 100 µM [5, 24] [%] | further results |
| --- | --- | --- | --- | --- | --- | --- | --- | --- | --- |
| Cc1ccc(/C=C2\Oc3ccccc3C2=O)cc1 [Aurone 8c, (Z)-2-(4-methylbenzylidene)benzofuran-3(2H)-one] | 75 to 76 |  |  |  |  |  |  |  | IC50 ([1]; read-out: T. brucei IC50 dose): > 50 µM; activity against T. cruzi [2]: effective against T. cruzi only; IC50 ([2]; read-out: T. cruzi IC50 dose): < 10 µM |
| O=C1/C(=C/c2cccs2)Oc2c1ccc(O)c2O [Aurone 1001, (Z)-6,7-dihydroxy-2-(thiophen-2-ylmethylene)benzofuran-3(2H)-one] | 168 to 170 | 25.3 | 22.9 | 50.6 | > 50 |  |  |  |  |
| O=C1/C(=C/c2cccs2)Oc2cc(O)ccc21 [Aurone 2901, (Z)-6-hydroxy-2-(thiophen-2-ylmethylene)benzofuran-3(2H)-one] | 300 to 303 | > 50 | 19.4 | > 100 | > 50 |  |  |  |  |
| Cc1ccc(/C=C2\Oc3cc(O)ccc3C2=O)cc1 [Aurone 2904, (Z)-6-hydroxy-2-(4-methylbenzylidene)benzofuran-3(2H)-one] | 258 to 264 | > 50 | 5.63 | 70.3 | > 50 |  |  |  | IC50 [2, 9]: > 50 µM |
| O=C1/C(=C/c2cc3ccccc3o2)Oc2ccccc21 [Aurone 3002, (Z)-2-(benzofuran-2-ylmethylene)benzofuran-3(2H)-one] | 145 to 150 | 20.2 | 6.48 | > 100 | 6.44 |  |  |  | Selectivity L6/Tb ([1]; Table 1): >4.96; Selectivity L6/Tb [1, 10]: >4.96; Selectivity L6/Tb [1, 11]: >4.96; Selectivity L6/La ([3]; Table 1): >15.43; Selectivity L6/La [3, 12]: >15.43; IC50 [4, 13]: > 100 µM; IC50 [4, 14]: > 100 µM; Selectivity L6/Tc [2, 15]: >15.53; Selectivity L6/Tc [2, 16]: >15.53; Selectivity L6/Tc-I [2, 17]: >15.53; IC50 [2, 9]: 6.44 µM; IC50 [2, 18]: 6.44 µM |
| O=C1/C(=C/c2cc(Br)ccc2Br)Oc2ccccc21 [Aurone 3003, (Z)-2-(2,5-dibromobenzylidene)benzofuran-3(2H)-one] | 181 to 182 | > 50 | 16 | > 100 | > 50 | > 100 | > 50 |  | Selectivity L6/La ([3]; Table 1): >6.24 |
| O=C1/C(=C/c2ccsc2)Oc2ccccc21 [Aurone 3004, (Z)-2-(thiophen-3-ylmethylene)benzofuran-3(2H)-one] | 125 to 126 | 38.7 | 24.2 | > 100 | 9.02 |  |  |  | activity against T. brucei [1]: moderate activity; Selectivity L6/Tb ([1]; Table 1): >2.58; Selectivity L6/Tb [1, 10]: >2.58; Selectivity L6/Tb [1, 11]: >2.58; Selectivity L6/La ([3]; Table 1): >4.13; Selectivity L6/La [3, 12]: >4.13; IC50 [4, 13]: > 100 µM; IC50 [4, 14]: > 100 µM; Selectivity L6/Tc [2, 15]: >11.09; Selectivity L6/Tc [2, 16]: >11.09; Selectivity L6/Tc-I [2, 17]: >11.09; IC50 [2, 9]: 9.02 µM; IC50 [2, 18]: 9.02 µM; IC50 ([2]; read-out: T. cruzi IC50 dose): 9.02 µM |
| O=C1/C(=C/c2ccoc2)Oc2ccccc21 [Aurone 3005, (Z)-2-(furan-3-ylmethylene)benzofuran-3(2H)-one] | 111 to 112 | 41.9 | 42.7 | > 100 | 7.47 |  |  |  | Selectivity L6/Tb ([1]; Table 1): >2.39; Selectivity L6/Tb [1, 10]: >2.39; Selectivity L6/Tb [1, 11]: >2.39; Selectivity L6/La ([3]; Table 1): >2.34; Selectivity L6/La [3, 12]: >2.34; IC50 [4, 13]: > 100 µM; IC50 [4, 14]: > 100 µM; Selectivity L6/Tc [2, 15]: >13.39; Selectivity L6/Tc [2, 16]: >13.39; Selectivity L6/Tc-I [2, 17]: >13.39; IC50 [2, 9]: 7.47 µM; IC50 [2, 18]: 7.47 µM |
| CC(=O)Nc1ccc(/C=C2\Oc3ccccc3C2=O)cc1 [Aurone 3006, (Z)-N-(4-((3-oxobenzofuran-2(3H)-ylidene)methyl)phenyl)acetamide] | 260 to 270 | > 50 | 12.5 | > 100 | > 50 |  |  |  | Selectivity L6/La ([3]; Table 1): >7.99; IC50 [4, 21]: > 100 µM; IC50 [2, 22]: > 50 µM |
| COc1cc(OC)c2c(c1)O/C(=C\c1ccc(C)cc1)C2=O [Aurone 7000, (Z)-4,6 dimethoxy-2-(4-methylbenzalidene) benzofuran-3(2H)-one] | 145 to 148 |  |  |  |  |  |  |  |  |
| O=C1/C(=C/c2ccccc2I)Oc2ccccc21 [Aurone 9003, (Z)-2-(2-iodobenzylidene)benzofuran-3(2H)-one] | 145 to 148 | > 50 |  | > 100 | 15.4 | > 100 | 15.4 |  | Selectivity L6/Tc [2, 15]: >6.50; Selectivity L6/TC-I ([2]; Table 3A, estimated from highest L6 dose tested where no L6 IC50): >6.50 |
| COc1cc(/C=C2\Oc3ccccc3C2=O)ccc1O [Aurone 9053, (Z)-2-(4-hydroxy-3-methoxybenzylidene)benzofuran-3(2H)-one] |  | > 50 | 2.15 | > 200 | > 50 |  |  |  | inhibition at 100 µM [5, 23]: 11.2 ± 2.2%; IC50 [2, 9]: > 50 µM |
| COc1cccc(/C=C2\Oc3ccccc3C2=O)c1O [Aurone 9055, (Z)-2-(2-hydroxy-3-methoxybenzylidene)benzofuran-3(2H)-one] |  | > 50 | 18.5 | > 100 | > 50 |  |  |  | inhibition at 100 µM [5, 23]: 16.7 ± 0.2% |
| COc1ccc(/C=C2\Oc3ccccc3C2=O)cc1O [Aurone 9078, (Z)-2-(3-hydroxy-4-methoxybenzylidene)benzofuran-3(2H)-one] |  | 41.2 | 1.45 | 70.7 |  |  |  |  | inhibition at 100 µM [5, 23]: 45.6 ± 2.6% |
| Cc1ccccc1/C=C1\Oc2ccccc2C1=O [Sample 9057] |  |  |  |  |  | 99.6 | 26.3 | 33.6 |  |
| Cc1cccc(/C=C2\Oc3ccccc3C2=O)c1 [Sample 9064] |  |  |  |  |  | 79.9 | 37.9 | 32.1 |  |
| O=C1/C(=C/c2ccc(O)cc2)Oc2ccccc21 [Sample 9068] |  |  |  |  |  | > 100 | > 50 | 11.1 |  |
| N#Cc1cccc(/C=C2\Oc3ccccc3C2=O)c1 [Sample 9070] |  |  |  |  |  | > 200 | 16.7 | 14.7 |  |
| O=C1/C(=C/c2ccc(C(F)(F)F)cc2)Oc2ccccc21 [Sample 9084] |  |  |  |  |  | > 400 | 9.38 | 17.6 |  |
| O=C1/C(=C/c2cccc(C(F)(F)F)c2)Oc2ccccc21 [Sample 9085] |  |  |  |  |  | 73.4 | 11.1 | 20.2 |  |
| O=C1/C(=C/c2ccccc2C(F)(F)F)Oc2ccccc21 [Sample 9086] |  |  |  |  |  | 130 | 18.5 | 14.3 |  |
| CN(C)c1ccc(/C=C2\Oc3ccccc3C2=O)cc1 [Sample 9087] |  |  |  |  |  |  |  | 31.2 | IC50 [4, 21]: 144 µM; IC50 [2, 22]: 5.38 µM |
| O=C1/C(=C/c2ccccc2O)Oc2ccccc21 [Sample 9088] |  |  |  |  |  | > 100 | 18.4 | 1 |  |
